Data taken from PMC9720979, “Activation of Piezo1 downregulates renin in juxtaglomerular cells and contributes to blood pressure homeostasis” (Cell & Bioscience, 2022).
pEC50: −log10 of the molar value.

Biological target: T1, Piezo1 (Mus musculus, UniProt E2JF22)
T1 construct: endogenous full-length channel in mouse juxtaglomerular cell line As4.1 (ATCC CRL2193); homotrimer
Test: Fluo-4 calcium imaging in As4.[…] cells, Hill fit
Format: cell-based
Details: agonist; native As4.1 cells, HBSS with extracellular Ca2+; no added modulator

T1 sequence (E2JF22 whole entry): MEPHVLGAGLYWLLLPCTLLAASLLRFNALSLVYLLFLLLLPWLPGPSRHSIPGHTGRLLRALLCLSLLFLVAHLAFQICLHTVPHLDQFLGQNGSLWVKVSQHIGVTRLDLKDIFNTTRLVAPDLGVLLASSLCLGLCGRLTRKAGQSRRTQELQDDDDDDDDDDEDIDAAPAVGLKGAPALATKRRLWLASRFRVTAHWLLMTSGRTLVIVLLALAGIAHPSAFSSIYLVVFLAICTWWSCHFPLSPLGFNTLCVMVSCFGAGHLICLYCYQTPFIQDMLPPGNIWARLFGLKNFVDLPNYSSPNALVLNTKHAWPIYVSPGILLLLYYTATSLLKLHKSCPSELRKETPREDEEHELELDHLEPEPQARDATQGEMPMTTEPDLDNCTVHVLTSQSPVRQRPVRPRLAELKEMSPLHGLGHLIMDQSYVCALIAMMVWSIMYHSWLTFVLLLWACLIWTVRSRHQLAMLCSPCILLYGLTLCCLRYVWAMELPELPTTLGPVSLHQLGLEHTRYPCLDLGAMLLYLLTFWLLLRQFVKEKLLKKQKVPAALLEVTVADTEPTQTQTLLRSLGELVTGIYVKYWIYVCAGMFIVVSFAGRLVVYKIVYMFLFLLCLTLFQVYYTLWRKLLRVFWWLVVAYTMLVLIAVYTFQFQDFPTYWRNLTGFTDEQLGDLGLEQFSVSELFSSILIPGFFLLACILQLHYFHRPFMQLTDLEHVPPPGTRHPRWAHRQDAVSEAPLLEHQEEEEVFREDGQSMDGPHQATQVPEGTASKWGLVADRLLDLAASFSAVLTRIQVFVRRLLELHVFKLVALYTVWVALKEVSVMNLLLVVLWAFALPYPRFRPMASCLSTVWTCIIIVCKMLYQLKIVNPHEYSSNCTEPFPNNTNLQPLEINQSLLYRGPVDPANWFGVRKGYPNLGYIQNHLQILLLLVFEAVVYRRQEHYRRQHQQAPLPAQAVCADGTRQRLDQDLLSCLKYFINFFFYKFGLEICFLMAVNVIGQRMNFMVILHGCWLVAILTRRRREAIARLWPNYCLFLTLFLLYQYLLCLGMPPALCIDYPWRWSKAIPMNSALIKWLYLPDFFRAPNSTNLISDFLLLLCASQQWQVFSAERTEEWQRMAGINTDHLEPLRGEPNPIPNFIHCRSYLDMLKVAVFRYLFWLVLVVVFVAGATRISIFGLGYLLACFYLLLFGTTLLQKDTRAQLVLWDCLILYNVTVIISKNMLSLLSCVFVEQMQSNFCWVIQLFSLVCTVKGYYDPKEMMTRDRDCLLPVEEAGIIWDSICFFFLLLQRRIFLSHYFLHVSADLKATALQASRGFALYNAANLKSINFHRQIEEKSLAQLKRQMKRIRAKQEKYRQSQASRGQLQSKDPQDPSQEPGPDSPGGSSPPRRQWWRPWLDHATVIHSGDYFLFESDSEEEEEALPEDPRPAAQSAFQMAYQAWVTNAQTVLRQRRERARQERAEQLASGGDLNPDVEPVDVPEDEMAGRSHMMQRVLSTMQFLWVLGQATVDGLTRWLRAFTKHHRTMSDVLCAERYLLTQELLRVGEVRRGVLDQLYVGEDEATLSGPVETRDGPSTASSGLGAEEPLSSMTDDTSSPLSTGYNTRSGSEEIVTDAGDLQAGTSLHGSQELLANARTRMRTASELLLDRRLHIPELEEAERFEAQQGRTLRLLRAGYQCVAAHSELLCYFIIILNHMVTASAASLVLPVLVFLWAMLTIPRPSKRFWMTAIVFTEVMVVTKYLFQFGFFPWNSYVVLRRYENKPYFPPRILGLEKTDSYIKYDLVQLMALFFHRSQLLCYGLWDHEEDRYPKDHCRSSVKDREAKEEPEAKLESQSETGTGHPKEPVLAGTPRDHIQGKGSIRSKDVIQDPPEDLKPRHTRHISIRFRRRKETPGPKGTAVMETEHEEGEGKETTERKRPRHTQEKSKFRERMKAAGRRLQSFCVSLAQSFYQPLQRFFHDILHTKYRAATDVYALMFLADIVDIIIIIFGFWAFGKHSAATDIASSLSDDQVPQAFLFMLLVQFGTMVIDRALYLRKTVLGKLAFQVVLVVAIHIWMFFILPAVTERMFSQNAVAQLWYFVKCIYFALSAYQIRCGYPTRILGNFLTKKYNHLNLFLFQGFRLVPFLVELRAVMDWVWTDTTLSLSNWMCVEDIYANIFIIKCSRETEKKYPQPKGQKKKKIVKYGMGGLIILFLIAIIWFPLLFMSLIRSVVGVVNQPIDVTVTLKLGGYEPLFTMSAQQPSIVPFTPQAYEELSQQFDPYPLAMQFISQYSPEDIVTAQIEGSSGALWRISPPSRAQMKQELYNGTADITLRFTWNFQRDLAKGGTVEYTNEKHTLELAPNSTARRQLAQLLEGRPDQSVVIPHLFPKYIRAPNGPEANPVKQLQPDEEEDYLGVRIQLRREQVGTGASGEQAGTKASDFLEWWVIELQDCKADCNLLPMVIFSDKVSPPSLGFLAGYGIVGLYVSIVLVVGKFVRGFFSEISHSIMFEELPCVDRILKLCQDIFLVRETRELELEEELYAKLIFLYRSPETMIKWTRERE

Clc1cccc(Cl)c1CSc1nnc(-c2cnccn2)s1 [Yoda1]
pEC50: 5.11
